Key:
TL in tears = assay: Pharmacological Study (1): amount of TL in tears after administration to eyelid skin; assay type: in vivo, Rabbits (Japanese White, females); conditions: cream 1% (w/v), eyelid skin of one eye, once per day 40 μL, two weeks after application vs before; rabbits with lower lacrimal gland and nictitating membrane excised, ketoconazole; mean ± standard error, n=4
Procedure: A study was conducted in rabbits as to whether or not the administration of nandrolone decanoate and methenolone acetate to eyelid skin increases the amount of TL in tears.
A cream containing 1% (w/v) of nandrolone decanoate, a cream containing 1% (w/v) of methenolone acetate and a base were prepared in the manner of the compositions indicated in Table 1.
Rabbits (Japanese White, females, purchased from Kitayama Labes Co., Ltd.) were used in the study. […]
Schirmer test paper (Showa Yakuhin Kako Co., Ltd.) was inserted into the conjunctival sac of the lower eyelid before application and two weeks after application to collect tears, followed by subjecting each of the collected tear specimens to slab gel electrophoresis. Following electrophoresis, the gel was stained with Coomassie Brilliant Blue stain, all protein bands, including the TL band at a molecular weight of about 17 kilodaltons, were detected, and the percentage of TL (% TL) in the total amount of protein present in the tears was calculated by image analysis of the resulting gel. The difference between the % TL before application and the % TL after application was determined for each individual and expressed as an increase in % TL (A % TL).

[1] = Pharmacokinetics Study (2): nandrolone concentration in the lacrimal glands after nandrolone decanoate to eyelid skin or instillation; assay type: in vivo, Rabbits (Japanese White, males); conditions: 2, 4, 8, 24 hours, LC-MS/MS, FIG. 2
Procedure: A study was conducted for change over time of nandrolone concentration in the lacrimal glands after administration of nandrolone decanoate to eyelid skin, or instillation thereof.
0.4 g of nandrolone decanoate were added to castor oil followed by bringing to a volume of 20 mL and dissolving therein to prepare an ointment containing 2% (w/v) of nandrolone decanoate. In addition, a preparation of the same composition was used as an ophthalmic solution containing nandrolone decanoate.
Rabbits (Japanese White, males, purchased from Kitayama Labes Co., Ltd.) were used in the study. Fur of the right upper eyelid was shaved by using an electric hair clipper under general anesthesia on the day before drug administration followed by fitting the rabbits with Elizabethan collars prior to administration. […]
The rabbits were euthanized at 2, 4, 8 and 24 hours after administration and the right upper lacrimal gland tissue was excised (from 3 animals at each time). The lacrimal gland tissue was homogenized in methanol and the concentration of nandrolone (active form of nandrolone decanoate) in the centrifuged supernatant was measured by LC-MS/MS. The concentration of nandrolone in the lacrimal gland tissue was calculated from the wet weight of the tissue measured prior to homogenization and the concentration of nandrolone in the measured specimen.

[2] = test system: lipophilin CL2 (L-CL2) gene; assay: Pharmacological Study (2): expression level of lipophilin CL2 (L-CL2) gene in lacrimal gland cells, quantitative PCR; assay type: cell-based, rabbits (Japanese White, females); conditions: isolated rabbit lacrimal gland cells, drug culture for 2 days, 0.1% DMSO; FIG. 3
Procedure: A comparative study of the action of increasing the expression level of lipophilin CL2 (L-CL2) gene by both nandrolone decanoate and methenolone acetate was conducted by allowing both drugs to act on lacrimal gland tissue cells. Furthermore, lipophilins are proteins that are synthesized in the lacrimal gland and are observed to be present in large amounts in the tears of humans and rabbits.
Each drug was dissolved in DMSO followed by diluting with DMEM/F-12 (D/F medium) to a final DMSO concentration of 0.1%. […]
Quantitative PCR was carried out by using primers designed by respectively joining to cDNA synthesized from the drug-treated lacrimal gland cells using the CellAmp Direct RNA Prep Kit and PrimeScript RT MasterMix (both manufactured by Takara Bio, Inc.), the QuantiFast SYBR Green PCR Kit (Qiagen Corp.), Rabbit L-CL2 gene (Accession No.: NM_001082095) and Rabbit GAPDH gene (Accession No.: NM_001082253). The expression level of L-CL2 gene of each of the drug-treated cells was corrected with expression of each GAPDH gene and expressed as the relative ratio to the expression level of cells treated with base (D/F medium containing 0.1% DMSO).

For `CCCCCCCCCC(=O)O[C@H]1CC[C@H]2[C@@H]3CCC4=CC(=O)CC[C@@H]4[C@H]3CC[C@]12C` [Nandrolone decanoate, 17β-decanoyloxy-19-nor-4-androsten-3-one], the “Δ % TL (increase in percentage of TL in total tear protein)” value (TL in tears) was 4.30 ± 0.473%, the “concentration of nandrolone in the lacrimal gland over time” value ([1]; single 50 μL ointment 2% (w/v) nandrolone decanoate to right upper eyelid skin) was “somewhat lower than the concentration of methenolone in lacrimal gland tissue after administration of methenolone acetate to eyelid skin” and the “concentration of nandrolone in the lacrimal gland over time” value ([1]; single 50 μL ophthalmic solution 2% (w/v) nandrolone decanoate by instillation into right eye) was “much lower than in the case of administration to eyelid skin”. The “expression of L-CL2 gene (corrected with GAPDH, relative ratio to base-treated cells)” value [2] was “increases expression of L-CL2 gene in lacrimal gland cells”.
